Our source for the T/C values is PubChem BioAssay AID212 (DTP/NCI, 2004).

SMILES strings stand for the structures. Several values for one entry are separate records, joined by “and”; a condition that tells them apart may be missing. Identical values can stand only once. Results filed as inconclusive are left out.

For this assay, the system named is BDF1 mice, colon carcinoma 38 sc, T/C %. Briefly: NCI In Vivo Anticancer Drug Screen. Data for tumor model Colon Carcinoma 38 (subcutaneous) in B6D2F1 (BDF1) mice. The settings on record: endpoint: median tumor weight (est.), higher = larger tumour. The method, boiled down:
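T/C readout: treated group (T) measurement over vehicle control group (C) measurement. Endpoint is survival or tumor size in mice bearing a transplanted tumor.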

Setting [1] is: dose: 25.0 mg/kg/injection, schedule: Q07DX002 (ip), vehicle: water.
[2] abbreviates: dose: 50.0 mg/kg/injection, schedule: Q07DX002 (ip), vehicle: water.
The mark [3] stands for this setting: dose: 25.0 mg/kg/injection, schedule: Q07DX002 (ip), vehicle: Klucel (hydroxypropylcellulose) (HPC).
Where [4] appears, read: dose: 200.0 mg/kg/injection, schedule: Q07DX002 (ip), vehicle: Klucel (hydroxypropylcellulose) (HPC).
[5] abbreviates: dose: 50.0 mg/kg/injection, schedule: Q07DX002 (ip), vehicle: Klucel (hydroxypropylcellulose) (HPC).
The mark [6] stands for this setting: dose: 400.0 mg/kg/injection, schedule: Q07DX002 (ip), vehicle: Klucel (hydroxypropylcellulose) (HPC).
Where [7] appears, read: dose: 800.0 mg/kg/injection, schedule: Q07DX002 (ip), vehicle: Klucel (hydroxypropylcellulose) (HPC).
Setting [8] is: dose: 25.0 mg/kg/injection, schedule: Q07DX002 (ip), vehicle: saline.
[9] abbreviates: dose: 50.0 mg/kg/injection, schedule: Q07DX002 (ip), vehicle: saline.
Where [10] appears, read: dose: 100.0 mg/kg/injection, schedule: Q07DX002 (ip), vehicle: saline.

`CC1OC(=O)C(C(C)C)NC(=O)C(C(C)C)OC(=O)C(C(C)C)NC(=O)C(C)OC(=O)C(C(C)C)NC(=O)C(C(C)C)OC(=O)C(C(C)C)NC(=O)C(C)OC(=O)C(C(C)C)NC(=O)C(C(C)C)OC(=O)C(C(C)C)NC1=O` (configuration not stated): the T/C is 71 % of control and 90 % of control (dose: 2.5 mg/kg/injection, schedule: Q07DX003 (ip), vehicle: saline with Tween-80); 79 % of control (dose: 5.0 mg/kg/injection, schedule: Q07DX003 (ip), vehicle: saline with Tween-80); 37 % of control (dose: 40.0 mg/kg/injection, schedule: Q07DX003 (ip), vehicle: saline with Tween-80).
Regarding `Cc1noc(N)c1N`, the T/C is 79 % of control under setting [1]; 82 % of control under setting [2]; 78 % of control (dose: 100.0 mg/kg/injection, schedule: Q07DX002 (ip), vehicle: water); 101 % of control (dose: 200.0 mg/kg/injection, schedule: Q07DX002 (ip), vehicle: water); 74 % of control (dose: 400.0 mg/kg/injection, schedule: Q07DX002 (ip), vehicle: water); 95 % of control (dose: 800.0 mg/kg/injection, schedule: Q07DX002 (ip), vehicle: water).
Take `O=C1C=CN(C2OC(CO)C(O)C2O)C(=O)C1` (configuration not stated): the T/C by setting is: (dose: 25.0 mg/kg/injection, schedule: Q07DX003 (ip), vehicle: saline) 121 % of control; (dose: 100.0 mg/kg/injection, schedule: Q07DX003 (ip), vehicle: saline) 73 % of control; (dose: 200.0 mg/kg/injection, schedule: Q07DX003 (ip), vehicle: saline) 163 % of control.
As for `C=C1C(=O)C23[C@H](O)C1CC[C@H]2[C@]12COC3(O)[C@@H](O)[C@@H]1C(C)(C)CC[C@@H]2O`, the T/C (dose: 1.56 mg/kg/injection, schedule: Q07DX002 (ip), vehicle: saline with Tween-80) is 104 % of control; the T/C (dose: 3.12 mg/kg/injection, schedule: Q07DX002 (ip), vehicle: saline with Tween-80) was 112 % of control and 96 % of control; the T/C (dose: 6.25 mg/kg/injection, schedule: Q07DX002 (ip), vehicle: saline with Tween-80) was 100 % of control; the T/C (dose: 12.5 mg/kg/injection, schedule: Q07DX002 (ip), vehicle: saline with Tween-80) is 80 % of control.
With `CCCCc1ccc(-n2c(C)c(COC(=O)NC)c(COC(=O)NC)c2C)cc1`, the T/C (dose: 12.5 mg/kg/injection, schedule: Q07DX002 (ip), vehicle: Klucel (hydroxypropylcellulose) (HPC)) was 88 % of control; the T/C under setting [3] was 66 % of control; the T/C under setting [4] was 60 % of control.
With `CCOC(=O)C(CC(C)C)NC(=O)C(Cc1ccc(N(CCCl)CCCl)cc1)NC(C)=O` (configuration not stated), the T/C runs as follows: (dose: 32.0 mg/kg/injection, schedule: Q07DX002 (ip), vehicle: saline with Tween-80) 53 % of control; (dose: 32.0 mg/kg/injection, schedule: Q07DX003 (ip), vehicle: saline with Tween-80) 76 % of control; (dose: 64.0 mg/kg/injection, schedule: Q07DX002 (ip), vehicle: saline with Tween-80) 36 % of control; (dose: 64.0 mg/kg/injection, schedule: Q07DX003 (ip), vehicle: saline with Tween-80) 66 % of control; (dose: 128.0 mg/kg/injection, schedule: Q07DX003 (ip), vehicle: saline with Tween-80) 82 % of control.
As to `N=[N+]=CC(=O)CCC(NC(=O)C(CCC(=O)C=[N+]=N)NC(=O)CCC(N)C(=O)O)C(=O)O` (configuration not stated), the T/C by setting is: (dose: 3.12 mg/kg/injection, schedule: Q07DX003 (ip), vehicle: clinical formulation) 54 % of control; (dose: 3.12 mg/kg/injection, schedule: Q07DX003 (ip), vehicle: water) 52 % of control; (dose: 6.25 mg/kg/injection, schedule: Q07DX003 (ip), vehicle: clinical formulation) 62 % of control; (dose: 6.25 mg/kg/injection, schedule: Q07DX003 (ip), vehicle: water) 48 % of control; (dose: 12.5 mg/kg/injection, schedule: Q07DX003 (ip), vehicle: clinical formulation) 46 % of control; (dose: 12.5 mg/kg/injection, schedule: Q07DX003 (ip), vehicle: water) 32 % of control. The T/C was 40 % of control (dose: 25.0 mg/kg/injection, schedule: Q07DX003 (ip), vehicle: clinical formulation); 44 % of control (dose: 25.0 mg/kg/injection, schedule: Q07DX003 (ip), vehicle: water); 18 % of control (dose: 50.0 mg/kg/injection, schedule: Q07DX003 (ip), vehicle: clinical formulation); 12 % of control (dose: 50.0 mg/kg/injection, schedule: Q07DX003 (ip), vehicle: water).
Consider `O=C(O)C1(NO)CCCCC1`, for which the T/C by setting is: under setting [3], 56 % of control; under setting [5], 86 % of control and 105 % of control; under setting [6], 118 % of control and 94 % of control; under setting [7], 112 % of control and 103 % of control.
On to `CC1C2CCC3C(O)C2(CC(O)C2(O)C1CC(O)C2(C)C)CC3(C)O` (configuration not stated), for which the T/C reads like this: (dose: 0.5 mg/kg/injection, schedule: Q07DX002 (ip), vehicle: Klucel (hydroxypropylcellulose) (HPC)) 103 % of control; (dose: 2.0 mg/kg/injection, schedule: Q07DX002 (ip), vehicle: Klucel (hydroxypropylcellulose) (HPC)) 181 % of control.
As for `O=C(O)C1CSCN1` (configuration not stated), the T/C by setting is: (dose: 6.25 mg/kg/injection, schedule: Q07DX002 (ip), vehicle: saline) 110 % of control; (dose: 6.25 mg/kg/injection, schedule: Q07DX002 (ip), vehicle: water) 106 % of control; (dose: 12.5 mg/kg/injection, schedule: Q07DX002 (ip), vehicle: saline) 98 % of control; under setting [8], 110 % of control; under setting [1], 114 % of control; under setting [9], 105 % of control. Moreover, the T/C reads like this: under setting [2], 87 % of control; under setting [10], 80 % of control.
For the compound `CN(C)C1C(=O)C(C(=O)NP(=O)(NCCCO)N(CCCl)CCCl)=C(O)C2(O)C(=O)C3=C(O)c4c(O)cccc4C(C)(O)C3CC12` (configuration not stated), the T/C (dose: 50.0 mg/kg/injection, schedule: Q07DX002 (ip), vehicle: saline with Tween-80) is 82 % of control; the T/C (dose: 100.0 mg/kg/injection, schedule: Q07DX002 (ip), vehicle: saline with Tween-80) is 95 % of control; the T/C (dose: 200.0 mg/kg/injection, schedule: Q07DX002 (ip), vehicle: saline with Tween-80) was 56 % of control; the T/C (dose: 400.0 mg/kg/injection, schedule: Q07DX002 (ip), vehicle: saline with Tween-80) is 17 % of control.
Turning to `CN(C)[C@@H]1C(=O)C(C(N)=O)=C(O)[C@@]2(O)C(=O)C3=C(O)c4c(O)ccc(Cl)c4[C@@](C)(O)[C@H]3C[C@@H]12`, the T/C by setting is: under setting [8], 182 % of control; (dose: 25.0 mg/kg/injection, schedule: Q07DX002 (ip), vehicle: suspension in saline) 82 % of control; under setting [9], 188 % of control; (dose: 50.0 mg/kg/injection, schedule: Q07DX002 (ip), vehicle: suspension in saline) 119 % of control; under setting [10], 117 % of control; (dose: 100.0 mg/kg/injection, schedule: Q07DX002 (ip), vehicle: suspension in saline) 80 % of control. In addition, the T/C reads like this: (dose: 200.0 mg/kg/injection, schedule: Q07DX002 (ip), vehicle: saline) 93 % of control; (dose: 200.0 mg/kg/injection, schedule: Q07DX002 (ip), vehicle: suspension in saline) 93 % of control; (dose: 400.0 mg/kg/injection, schedule: Q07DX002 (ip), vehicle: suspension in saline) 65 % of control.
Take `CC(C)CCC[C@@H](C)[C@H]1CC[C@H]2[C@@H]3CC=C4C[C@@H](OC(=O)Cc5ccc(N(CCCl)CCCl)cc5)CC[C@]4(C)[C@H]3CC[C@]12C`: the T/C is 85 % of control under setting [3]; 111 % of control under setting [5]; 103 % of control (dose: 100.0 mg/kg/injection, schedule: Q07DX002 (ip), vehicle: Klucel (hydroxypropylcellulose) (HPC)); 103 % of control under setting [4]; 77 % of control under setting [6]; 82 % of control under setting [7].
